Values joined by “and” are separate entries in the source; they are usually repeats but may differ in a detail not shown here. Equal values may be shown once. Where a name gives a salt, the structure may show the parent alone. Some results are limits rather than exact numbers.

This experiment deals with 5-hydroxytryptamine receptor 4 (Mus musculus, UniProt P97288).
Chain of 5-hydroxytryptamine receptor 4 (P97288 whole entry): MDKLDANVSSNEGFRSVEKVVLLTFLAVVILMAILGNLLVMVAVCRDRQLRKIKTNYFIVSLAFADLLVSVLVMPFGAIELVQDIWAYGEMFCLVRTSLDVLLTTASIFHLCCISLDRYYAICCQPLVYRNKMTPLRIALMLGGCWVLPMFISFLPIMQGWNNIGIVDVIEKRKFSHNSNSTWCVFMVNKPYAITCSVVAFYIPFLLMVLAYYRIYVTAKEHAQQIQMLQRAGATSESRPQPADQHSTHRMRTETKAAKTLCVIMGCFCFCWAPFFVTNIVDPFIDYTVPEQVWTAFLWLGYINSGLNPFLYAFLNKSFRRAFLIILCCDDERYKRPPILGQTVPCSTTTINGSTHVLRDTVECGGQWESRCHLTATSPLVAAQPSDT
With `CN1C2CCC1CC(OC(=O)c1c[nH]c3ccccc13)C2` (stereo not given), the affinity corresponds to a Ki of 87.1 nM.
As for `COc1cc(N)c(Cl)cc1C(=O)NC1CCN(CCCC(=O)N2CCC(N(C)C)CC2)CC1OC` (stereo not given) [4-Amino-5-chloro-N-(1-{4-[4-(dimethylamino)-1-piperidinyl]-4-oxobutyl}-3-methoxy-4-piperidinyl)-2-methoxybenzamide], the Ki was determined as 2.88 nM.
The compound `COc1cc(N)c(Cl)cc1C(=O)NC1CCN(CCCOc2ccc(F)cc2)CC1OC` (stereo not given) [4-amino-5-chloro-N-(1-(3-(4-fluorophenoxy)propyl)-3-methoxypiperidin-4-yl)-2-methoxybenzamide] had a Ki of 32.4 nM.
The result for `CCN(CC)CCNC(=O)c1cc(Cl)c(N)cc1OC` [4-amino-5-chloro-N-[2-(diethylamino)ethyl]-2-methoxy-benzamide;hydrochloride] reads 891 nM; that for `CCn1c(=O)n(C(=O)NC2CC3CCC(C2)N3C)c2ccccc21` (stereo not given) [BIMU 1], 28.8 nM; that for `CC(C)n1c(=O)n(C(=O)NC2C[C@H]3CC[C@@H](C2)N3C)c2ccccc21` (stereo not given in full) [BIMU 8], 40.7 nM.
`COc1ccc2[nH]c(=O)n(C(=O)OC3CC4CCC(C3)N4C)c2c1` (stereo not given) [DAU 6285] registered a Ki of 55 nM.
`Cn1cc(C(=O)OCC2CCN(CCNS(C)(=O)=O)CC2)c2ccccc21` [GR 113808] returned a Ki of 0.2 nM.
In turn, `COc1[nH]c2ccc(F)cc2c1C(=O)OCC1CCN(CCNS(C)(=O)=O)CC1` [GR-125487] showed a Ki of 0.02 nM.
Turning to `COc1cc(N)c(Cl)cc1C(=O)NC1CCN2CCCC1C2` (stereo not given) [NSC_3035240], the Ki was 132 nM.
As for `CCN(CC)CCOC(=O)c1cc(Cl)c(N)cc1OC` [SDZ-205557], the affinity, expressed as Ki, was 7.76 nM.
For `COc1cc(N)c(Cl)cc1C(=O)NC1CN2CCC1CC2` (stereo not given) [ZACOPRIDE,R] the value was 191 nM.
Compound `NCCc1c[nH]c2ccc(O)cc12` [[3H]-5-HT] gave a Ki of 56.2 nM.
The result for `NCCc1c[nH]c2ccc(C(N)=O)cc12` [[3H]-5-carboxamidotryptamine] reads > 10000 nM and 9770 nM; that for `COc1ccc2[nH]cc(CCN)c2c1` [tryptamine, 5-Methoxy], 229 nM.

The record behind these values is BindingDB's records for doi:10.1016/s0014-5793(96)01132-5 (Cnrs Upr 9023, 1996).
